# Reference: patent US20230279020A9, “CARM1 INHIBITORS AND USES THEREOF” (Epizyme, Inc., priority 2013, published 2023)
# Molecular target: Human CARM1 (PRMT4) (Homo sapiens (Human), UniProt Q86X55)
# Experiment: CARM1 enzyme assay on peptide substrate (3H-SAM Flashplate)
# Conditions: Biochemical potencies, classification codes; read-out: Biochem IC50
# Human CARM1 (PRMT4), sequence (Q86X55 other isoform, or with tags, fused parts or gaps isoform Q86X55-1): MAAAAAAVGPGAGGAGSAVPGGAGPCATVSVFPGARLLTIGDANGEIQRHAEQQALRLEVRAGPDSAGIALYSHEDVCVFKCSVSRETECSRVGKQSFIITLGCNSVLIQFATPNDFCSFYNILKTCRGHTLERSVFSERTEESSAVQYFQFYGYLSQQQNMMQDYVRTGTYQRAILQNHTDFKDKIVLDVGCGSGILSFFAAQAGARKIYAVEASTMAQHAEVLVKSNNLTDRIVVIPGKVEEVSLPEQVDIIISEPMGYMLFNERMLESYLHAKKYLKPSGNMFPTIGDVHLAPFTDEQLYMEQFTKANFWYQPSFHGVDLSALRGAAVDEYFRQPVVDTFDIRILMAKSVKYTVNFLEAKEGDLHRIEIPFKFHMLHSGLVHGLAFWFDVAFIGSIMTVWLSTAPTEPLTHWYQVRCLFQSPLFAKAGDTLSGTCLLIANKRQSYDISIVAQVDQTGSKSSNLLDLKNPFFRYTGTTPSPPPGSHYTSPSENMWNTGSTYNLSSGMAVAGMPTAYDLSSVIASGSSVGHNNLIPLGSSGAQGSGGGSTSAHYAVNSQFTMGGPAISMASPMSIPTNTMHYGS
row,IC50,Compound
1,< 100 nM,CNCC(O)COc1cccc(-c2nc(NCC3CCN(CC(F)F)CC3)c(C)c(-c3c(C)noc3C)n2)c1 (stereo not shown) [Example 205-1a]
2,< 100 nM,CNC[C@@H](O)COc1ccc(Cl)c(-c2nc(-c3c(C)noc3C)c(C)c(C3CC3)n2)c1 [Example 205-3]
3,< 100 nM,CCOC(=O)N1CCOC[C@@H]1CNc1nc(-c2cccc(OCC(O)CNC)c2)nc(-c2c(C)noc2C)c1C (stereo partly shown) [Example 206-1a]
4,< 100 nM,CNC[C@@H](O)COc1ccc(Cl)c(-c2nc(-c3c(C)noc3C)c(C)c(N3CC(F)C3)n2)c1 [Example 206-3]
5,< 100 nM,CNCC(O)COc1cccc(-c2nc(NC3CCNC[C@H]3F)c(C)c(-c3c(C)noc3C)n2)c1 (stereo partly shown) [Example 207-1a]
6,< 100 nM,CNC[C@@H](O)COc1ccc(Cl)c(-c2nc(-c3c(C)noc3C)c(C)c(N3CCC3C)n2)c1 (stereo partly shown) [Example 207-3]
7,< 100 nM,CNCC(O)COc1cccc(-c2nc(NC3CCN(C(=O)OC(C)(C)C)C[C@H]3F)c(C)c(-c3c(C)noc3C)n2)c1 (stereo partly shown) [Example 208-1a]
8,< 100 nM,CNC[C@@H](O)COc1ccc(Cl)c(-c2nc(N[C@H]3CCN(C)C[C@H]3F)c(Cl)c(-c3c(C)noc3C)n2)c1 [Example 208-3]
9,< 100 nM,CNCC(O)COc1cccc(-c2nc(-c3c(C)noc3C)c(C)c(N3CCO[C@@H](C)C3)n2)c1 (stereo partly shown) [Example 209-1a]
10,< 100 nM,CNC[C@@H](O)COc1ccc(Cl)c(-c2nc(N[C@H]3COC[C@@H]3O)c(C)c(-c3c(C)noc3C)n2)c1 [Example 209-3]
11,< 100 nM,CNCC(O)COc1cccc(-c2nc(Nc3cn(C)cn3)c(C)c(-c3c(C)noc3C)n2)c1 (stereo not shown) [Example 210-1a]
12,< 100 nM,CNC[C@@H](O)COc1ccc(Cl)c(-c2nc(N[C@@H]3CCN(C)C[C@@H]3F)c(Cl)c(-c3c(C)noc3C)n2)c1 [Example 210-3]
13,< 100 nM,CNCC(O)COc1cccc(-c2nc(-c3c(C)noc3C)c(C)c(N3CCO[C@H](C)C3)n2)c1 (stereo partly shown) [Example 211-1a]
14,< 100 nM,CNC[C@@H](O)COc1ccc(Cl)c(-c2nc(N[C@@H]3CCN(C4CC4)C[C@@H]3F)c(Cl)c(-c3c(C)noc3C)n2)c1 [Example 211-3]
15,< 100 nM,CNCC(O)COc1cccc(-c2nc(NC3C4COCC43)c(C)c(-c3c(C)noc3C)n2)c1 (stereo not shown) [Example 212-1a]
16,< 100 nM,CNC[C@@H](O)COc1ccc(Cl)c(-c2nc(N[C@H]3CC[C@@H](OC)C3)c(C)c(-c3c(C)noc3C)n2)c1 [Example 212-3]
17,< 100 nM,CNC[C@@H](O)COc1ccc(Cl)c(-c2nc(-c3c(C)noc3C)c(C)c(N(C)[C@H]3CC[C@@H](OC)C3)n2)c1 [Example 213-3]
18,< 100 nM,CNC[C@@H](O)COc1ccc(Cl)c(-c2nc(-c3c(C)noc3C)c(Cl)c(N3Cc4ccncc4C3)n2)c1 [Example 214-3]
19,< 100 nM,CNCC(O)COc1cccc(-c2nc(Nc3nncs3)c(C)c(-c3c(C)noc3C)n2)c1 (stereo not shown) [Example 215-1a]
20,< 100 nM,CNC[C@@H](O)COc1ccc(Cl)c(-c2nc(NC[C@H]3CCCO3)c(Cl)c(-c3c(C)noc3C)n2)c1 [Example 215-3]
21,< 100 nM,CNCC(O)COc1cccc(-c2nc(NC3CCCN(C(=O)N(C)C)C3)c(C)c(-c3c(C)noc3C)n2)c1 (stereo not shown) [Example 216-1a]
22,< 100 nM,CNC[C@@H](O)COc1ccc(Cl)c(-c2nc(N[C@H]3C[C@@H](OC)C3)c(Cl)c(-c3c(C)noc3C)n2)c1 [Example 216-3]
23,< 100 nM,CNCC(O)COc1cccc(-c2nc(Nc3nnc(C4CC4)s3)c(C)c(-c3c(C)noc3C)n2)c1 (stereo not shown) [Example 217-1a]

row,IC50,Compound
1,< 100 nM,CNC[C@@H](O)COc1ccc(Cl)c(-c2nc(N[C@H]3C[C@H](OC)C3)c(Cl)c(-c3c(C)noc3C)n2)c1 [Example 217-3]
2,< 100 nM,CNCC(O)COc1cccc(-c2nc(N[C@H]3CCC[C@H]3O)c(C)c(-c3c(C)noc3C)n2)c1 (stereo partly shown) [Example 218-1a]
3,< 100 nM,CNCC(O)COc1ccc(Cl)c(-c2nc(NC3CC4(CC4)C3)c(C)c(-c3c(C)noc3C)n2)c1 (stereo not shown) [Example 218-3]
4,< 100 nM,CNCC(O)COc1cccc(-c2nc(NC3CCC[C@H]3O)c(C)c(-c3c(C)noc3C)n2)c1 (stereo partly shown) [Example 219-1a]
5,< 100 nM,CNC[C@@H](O)COc1ccc(Cl)c(-c2nc(NC3CC(COC)C3)c(C)c(-c3c(C)noc3C)n2)c1 (stereo partly shown) [Example 219-3]
6,< 100 nM,CNCC(O)COc1cccc(-c2nc(N[C@@H]3CCOC[C@@H]3OC)c(C)c(-c3c(C)noc3C)n2)c1 (stereo partly shown) [Example 220-1a]
7,< 100 nM,CNC[C@@H](O)COc1ccc(Cl)c(-c2nc(-c3c(C)noc3C)c(C)c(N(C)C3CC(COC)C3)n2)c1 (stereo partly shown) [Example 220-3]
8,< 100 nM,CNCC(O)COc1cccc(-c2nc(N[C@H]3C[C@H](C(=O)OC)C3)c(C)c(-c3c(C)noc3C)n2)c1 (stereo partly shown) [Example 221-1a]
9,< 100 nM,CCOC(=O)N1CCC[C@H]1CCOc1nc(-c2cc(OC[C@H](O)CNC)ccc2Cl)nc(-c2c(C)noc2C)c1C [Example 221-3]
10,< 100 nM,CCO[C@H]1CCC[C@@H]1Nc1nc(-c2cc(OC[C@H](O)CNC)ccc2Cl)nc(-c2c(C)noc2C)c1C [Example 222-3]
11,< 100 nM,CNC[C@@H](O)COc1ccc(F)c(-c2nc(-c3c(C)noc3C)c(C)c(N3Cc4cnn(C)c4C3)n2)c1 [Example 223-3]
12,< 100 nM,CNCC(O)COc1cccc(-c2nc(N[C@@H]3CCNC[C@@H]3F)c(C)c(-c3c(C)noc3C)n2)c1 (stereo partly shown) [Example 224-1a]
13,< 100 nM,CNC[C@@H](O)COc1ccc(Cl)c(-c2nc(-c3c(C)noc3C)c(C)c(N3Cc4[nH]nc(C)c4C3)n2)c1 [Example 224-3]
14,< 100 nM,CNCC(O)COc1cccc(-c2nc(N[C@@H]3CCN(C(=O)OC)C[C@@H]3F)c(C)c(-c3c(C)noc3C)n2)c1 (stereo partly shown) [Example 225-1a]
15,< 100 nM,CNC[C@@H](O)COc1ccc(Cl)c(-c2nc(-c3c(C)noc3C)c(Cl)c(N3Cc4nccnc4C3)n2)c1 [Example 225-3]
16,< 100 nM,CCOC(=O)N1CC[C@@H](Nc2nc(-c3cccc(OCC(O)CNC)c3)nc(-c3c(C)noc3C)c2C)[C@@H](F)C1 (stereo partly shown) [Example 226-1a]
17,< 100 nM,CNC[C@@H](O)COc1ccc(F)c(-c2nc(-c3c(C)noc3C)c(C)c(N3Cc4nccnc4C3)n2)c1 [Example 226-3]
18,< 100 nM,CNCC(O)COc1cccc(-c2nc(N[C@@H]3CCN(C(=O)OC(C)(C)C)C[C@@H]3F)c(C)c(-c3c(C)noc3C)n2)c1 (stereo partly shown) [Example 227-1a]
19,< 100 nM,CNC[C@@H](O)COc1ccc(F)c(-c2nc(-c3c(C)noc3C)c(C)c(N3CC4(CCOCC4)C3)n2)c1 [Example 227-3]
20,< 100 nM,CNCC(O)COc1cccc(-c2nc(N[C@@H]3CCN(C(=O)OC)C[C@H]3F)c(C)c(-c3c(C)noc3C)n2)c1 (stereo partly shown) [Example 228-1a]
21,< 100 nM,CNC[C@@H](O)COc1ccc(Cl)c(-c2nc(NC[C@@H]3CCOC3)c(C)c(-c3c(C)noc3C)n2)c1 [Example 228-3]
22,< 100 nM,CCOC(=O)N1CC[C@@H](Nc2nc(-c3cccc(OCC(O)CNC)c3)nc(-c3c(C)noc3C)c2C)[C@H](F)C1 (stereo partly shown) [Example 229-1a]
23,< 100 nM,CNC[C@@H](O)COc1ccc(Cl)c(-c2nc(-c3c(C)noc3C)c(Cl)c(N3CC4(CCOCC4)C3)n2)c1 [Example 229-3]

row,IC50,Compound
1,< 100 nM,CCS(=O)(=O)N1CCOC[C@@H]1CNc1nc(-c2cccc(OCC(O)CNC)c2)nc(-c2c(C)noc2C)c1C (stereo partly shown) [Example 230-1a]
2,< 100 nM,CNC[C@@H](O)COc1ccc(Cl)c(-c2nc(NC3CC(C)C3)c(C)c(-c3c(C)noc3C)n2)c1 (stereo partly shown) [Example 230-3]
3,< 100 nM,CNCC(O)COc1cccc(-c2nc(N[C@H]3C[C@H](C(C)(C)O)C3)c(C)c(-c3c(C)noc3C)n2)c1 (stereo partly shown) [Example 231-1a]
4,< 100 nM,CNC[C@@H](O)COc1ccc(Cl)c(-c2nc(-c3c(C)noc3C)c(C)c(N3Cc4cn[nH]c4C3)n2)c1 [Example 231-3]
5,< 100 nM,CNCC(O)COc1cccc(-c2nc(N[C@H]3C[C@@H](C(C)(C)O)C3)c(C)c(-c3c(C)noc3C)n2)c1 (stereo partly shown) [Example 232-1a]
6,< 100 nM,CNC[C@@H](O)COc1ccc(Cl)c(-c2nc(-c3c(C)noc3C)c(C)c(N3Cc4cc(OC)cnc4C3)n2)c1 [Example 232-3]
7,< 100 nM,CNCC(O)COc1cccc(-c2nc(Nc3cc(C)on3)c(C)c(-c3c(C)noc3C)n2)c1 (stereo not shown) [Example 233-1a]
8,< 100 nM,CNC[C@@H](O)COc1ccc(Cl)c(-c2nc(NC[C@H]3CCOC3)c(C)c(-c3c(C)noc3C)n2)c1 [Example 233-3]
9,< 100 nM,CNCC(O)COc1cccc(-c2nc(N[C@H]3CC[C@H](OC)C3)c(C)c(-c3c(C)noc3C)n2)c1 (stereo partly shown) [Example 234-1a]
10,< 100 nM,CNC[C@@H](O)COc1ccc(Cl)c(-c2nc(-c3c(C)noc3C)c(C)c(N3CCC4(CC4)C3)n2)c1 [Example 234-3]
11,< 100 nM,CNCC(O)COc1cccc(-c2nc(-c3c(C)noc3C)c(C)c(N3CCN(Cc4ccccc4)C(C(F)F)C3)n2)c1 (stereo not shown) [Example 235-1a]
12,< 100 nM,CNC[C@@H](O)COc1ccc(Cl)c(-c2nc(-c3c(C)noc3C)c(C)c(N3CC4CC4C3)n2)c1 (stereo partly shown) [Example 235-3]
13,< 100 nM,CNCC(O)COc1cccc(-c2nc(NC3CCOCC3)c(C)c(-c3c(C)noc3C3CC3)n2)c1 (stereo not shown) [Example 236-1a]
14,< 100 nM,CNC[C@@H](O)COc1ccc(Cl)c(-c2nc(-c3c(C)noc3C)c(C)c(N3Cc4c(C)nn(C)c4C3)n2)c1 [Example 236-3]
15,< 100 nM,CNCC(O)COc1cccc(-c2nc(NC3CN(CC(F)F)C3)c(C)c(-c3c(C)noc3C)n2)c1 (stereo not shown) [Example 237-1a]
16,< 100 nM,CCOC(=O)N1CC(Nc2nc(-c3cccc(OCC(O)CNC)c3)nc(-c3c(C)noc3C)c2C)C1 (stereo not shown) [Example 238-1a]
17,< 100 nM,CNC[C@@H](O)COc1ccc(Cl)c(-c2nc(-c3c(C)noc3C)c(C)c(N3CCC3)n2)c1 [Example 238-3]
18,< 100 nM,CNCC(O)COc1cccc(-c2nc(NC3CCOC(C)C3)c(C)c(-c3c(C)noc3C)n2)c1 (stereo not shown) [Example 239-1a]
19,< 100 nM,CNC[C@@H](O)COc1ccc(Cl)c(-c2nc(-c3cnn(C)c3)c(C)c(-c3c(C)noc3C)n2)c1 [Example 239-3]
20,< 100 nM,CNCC(O)COc1cccc(-c2nc(NC3CCN(C4COC4)C3)c(C)c(-c3c(C)noc3C)n2)c1 (stereo not shown) [Example 240-1a]
21,< 100 nM,CCO[C@@H]1CCC[C@H]1Nc1nc(-c2cc(OC[C@H](O)CNC)ccc2Cl)nc(-c2c(C)noc2C)c1C [Example 240-3]
